Data: publication PMC6199744, “Development of Chemical Proteomics for the Folateome and Analysis of the Kinetoplastid Folateome” (ACS Infectious Diseases, 2018)
Read-outs that look alike come from different tables or passages of the source.

Experiments:
[1] = target: T. brucei lysate proteins (Trypanosoma brucei brucei, UniProt P23799); format: binding; conditions: for fold change - vehicle control: protein PUTATIVE ADENYLATE CYCLASE […] (ESAG8) (CZT00028390.1)
[2] = target: T. brucei lysate proteins (Trypanosoma brucei brucei, UniProt P04789); format: binding
Chain of T. brucei lysate proteins (Trypanosoma brucei brucei, UniProt P04789) (P04789 whole entry): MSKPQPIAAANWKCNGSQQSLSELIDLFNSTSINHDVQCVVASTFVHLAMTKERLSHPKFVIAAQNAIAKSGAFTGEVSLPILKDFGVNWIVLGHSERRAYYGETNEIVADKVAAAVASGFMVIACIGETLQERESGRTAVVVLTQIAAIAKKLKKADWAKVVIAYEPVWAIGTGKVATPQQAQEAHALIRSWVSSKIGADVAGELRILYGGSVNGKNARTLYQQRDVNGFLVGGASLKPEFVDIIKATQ

[3] = target: T1, HeLa cell extract proteins (Homo sapiens, UniProt P24539); format: binding
T1 construct: endogenous in cells; host or cells: HeLa cell extract
T1 sequence (P24539 43-256): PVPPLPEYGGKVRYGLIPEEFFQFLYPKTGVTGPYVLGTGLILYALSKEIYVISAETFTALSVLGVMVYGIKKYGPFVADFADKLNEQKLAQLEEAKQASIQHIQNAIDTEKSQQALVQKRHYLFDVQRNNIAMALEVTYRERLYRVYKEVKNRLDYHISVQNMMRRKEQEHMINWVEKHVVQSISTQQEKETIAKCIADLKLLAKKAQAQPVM

[4] = target: T2, HeLa cell extract proteins (Homo sapiens, UniProt Q9NQX3); format: binding
T2 construct: endogenous in cells; host or cells: HeLa cell extract
T2 sequence (Q9NQX3 1-736): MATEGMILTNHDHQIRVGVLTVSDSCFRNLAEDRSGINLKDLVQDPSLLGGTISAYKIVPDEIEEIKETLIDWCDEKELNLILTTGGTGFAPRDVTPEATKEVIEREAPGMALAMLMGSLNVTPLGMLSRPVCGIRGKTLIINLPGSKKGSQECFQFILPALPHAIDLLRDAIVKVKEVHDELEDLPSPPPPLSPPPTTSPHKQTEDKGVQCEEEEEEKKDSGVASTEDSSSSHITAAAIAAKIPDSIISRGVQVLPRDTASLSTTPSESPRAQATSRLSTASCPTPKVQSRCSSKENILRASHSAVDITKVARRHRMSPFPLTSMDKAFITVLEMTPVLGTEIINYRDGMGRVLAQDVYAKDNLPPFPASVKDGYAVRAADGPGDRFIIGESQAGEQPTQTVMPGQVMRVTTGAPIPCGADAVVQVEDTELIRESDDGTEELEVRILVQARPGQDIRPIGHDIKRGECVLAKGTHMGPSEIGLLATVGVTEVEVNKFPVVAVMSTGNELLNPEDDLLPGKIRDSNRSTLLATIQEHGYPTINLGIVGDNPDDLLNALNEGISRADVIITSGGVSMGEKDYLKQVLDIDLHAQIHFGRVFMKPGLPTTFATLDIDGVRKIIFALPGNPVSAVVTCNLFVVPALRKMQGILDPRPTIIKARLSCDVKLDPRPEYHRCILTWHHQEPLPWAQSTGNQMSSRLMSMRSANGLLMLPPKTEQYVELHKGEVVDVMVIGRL

[5] = system: phenylalanine-4-hydroxylase (PAH); test: Multitargeted bead mixture competition; format: binding, L. major; conditions: for fold change vs vehicle control: protein LMJF.28.1280 PHENYLALANINE-4-HYDROXYLASE,PHENYLALANINE-4-HYDROXYLASE, PUTATIVE; for binding and competition to phenylalanine-4-hydroxylase (PAH): bead mixture, L. major lysate; for fold change: protein LMJF.28.1280 PHENYLALANINE-4-HYDROXYLASE, vehicle control = 1
[6] = target: PTERIDINE REDUCTASE (TB927.8.2210) (Trypanosoma brucei brucei, UniProt O76290); test: Multitargeted bead mixture competition; format: binding, T. brucei; conditions: for fold change vs vehicle control / fold change - vehicle control: protein PTERIDINE REDUCTASE (CZT00009056.1); for fold change vs vehicle control: vehicle control = 1; for competition for PTR1 (Figure 6): bead mixture, compound 100 μM
Chain of PTERIDINE REDUCTASE (TB927.8.2210) (O76290 entry or part of it): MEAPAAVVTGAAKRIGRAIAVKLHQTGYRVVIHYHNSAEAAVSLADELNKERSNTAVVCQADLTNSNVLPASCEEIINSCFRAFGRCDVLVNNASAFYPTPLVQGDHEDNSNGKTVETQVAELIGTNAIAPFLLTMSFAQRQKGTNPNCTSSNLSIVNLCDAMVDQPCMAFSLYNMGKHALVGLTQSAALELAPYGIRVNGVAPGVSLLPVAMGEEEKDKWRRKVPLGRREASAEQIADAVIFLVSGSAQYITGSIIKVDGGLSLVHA

[7] = protein CZT00028390.1 PUTATIVE ADENYLATE CYCLASE […] (ESAG8), vehicle control = 1
[8] = protein TB427TMP.02.3210 TRIOS[…], vehicle control = 1
[9] = protein TB427TMP.02.3210 TRIOS[…]

Chain of T. brucei lysate proteins (Trypanosoma brucei brucei, UniProt P23799) (P23799 whole entry): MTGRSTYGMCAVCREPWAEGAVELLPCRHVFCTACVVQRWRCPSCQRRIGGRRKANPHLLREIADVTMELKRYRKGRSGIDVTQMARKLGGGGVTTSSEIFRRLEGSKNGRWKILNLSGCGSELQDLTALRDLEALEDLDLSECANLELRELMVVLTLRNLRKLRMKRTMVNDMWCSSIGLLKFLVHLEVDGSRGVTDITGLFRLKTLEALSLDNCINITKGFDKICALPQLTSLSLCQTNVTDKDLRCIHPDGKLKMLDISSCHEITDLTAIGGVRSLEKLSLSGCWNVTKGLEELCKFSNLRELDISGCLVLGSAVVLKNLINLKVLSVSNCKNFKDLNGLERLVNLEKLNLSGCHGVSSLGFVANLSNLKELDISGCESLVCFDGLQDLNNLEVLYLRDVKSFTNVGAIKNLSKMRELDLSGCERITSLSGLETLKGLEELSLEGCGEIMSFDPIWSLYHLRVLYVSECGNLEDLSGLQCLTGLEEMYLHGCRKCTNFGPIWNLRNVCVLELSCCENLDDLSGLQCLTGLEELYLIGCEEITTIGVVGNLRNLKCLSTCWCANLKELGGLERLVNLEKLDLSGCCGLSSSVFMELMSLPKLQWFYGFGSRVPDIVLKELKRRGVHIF

Nc1nc2c(c(=O)[nH]1)N(C=O)C(CNc1ccc(C(=O)N[C@@H](CCC(=O)O)C(=O)O)cc1)CN2 (some centres unmarked) [LEU, leucovorin]
fold change vs vehicle control [1, 7]: 1.17 | fold change vs vehicle control [2, 8]: 2.16 | fold changes relative to vehicle control ([3]; HeLa, captured protein ATP5F1): 1.15 | fold changes relative to vehicle control ([4]; HeLa, captured protein GPHN): 0.81 | fold change vs vehicle control [5]: 0.99 | fold change vs vehicle control [6]: 0.92

Nc1nc2[nH]cc(CCc3ccc(C(=O)N[C@@H](CCC(=O)O)C(=O)O)cc3)c2c(=O)[nH]1 [PTX, pemetrexed]
fold change vs vehicle control [1]: 1.01 | fold change vs vehicle control [2]: 0.63 | fold changes relative to vehicle control [3]: 1.13 | fold changes relative to vehicle control [4]: 0.83 | binding and competition to phenylalanine-4-hydroxylase (PAH) [5]: binding and competition | fold change vs vehicle control [5]: 0.28 | competition for PTR1 (Figure 6) ([6]; T. brucei lysate): competed for PTR1 | fold change vs vehicle control [6]: 0.16

CCCCCCOc1ccc(Cc2cnc(N)nc2N)cc1 [compound 1]
fold change - vehicle control [1]: 1.15 | fold change - vehicle control [2, 9]: 0.88 | fold changes relative to vehicle control ([3]; HeLa, protein ATP5F1): 1.05 | fold changes relative to vehicle control ([4]; protein GPHN, HeLa): 0.94 | fold change [5]: 1.16 | fold change - vehicle control [6]: 1

CCCCCCOc1cccc(Cc2cnc(N)nc2N)c1 [compound 2]
fold change - vehicle control [1]: 0.97 | fold change - vehicle control [2, 9]: 0.98 | fold changes relative to vehicle control ([3]; HeLa, protein ATP5F1): 0.85 | fold changes relative to vehicle control ([4]; protein GPHN, HeLa): 0.93 | fold change [5]: 1.1 | fold change - vehicle control [6]: 0.92

Nc1nc2cccc(-c3ccccc3)c2n1Cc1ccc(Cl)c(Cl)c1 [compound 3]
fold change - vehicle control [1]: 0.98 | fold change - vehicle control [2, 9]: 0.75 | fold changes relative to vehicle control ([3]; HeLa, protein ATP5F1): 0.88 | fold changes relative to vehicle control ([4]; protein GPHN, HeLa): 0.96 | binding and competition to phenylalanine-4-hydroxylase (PAH) [5]: binding and competition | fold change [5]: 0.81 | competition for PTR1 (Figure 6) ([6]; T. brucei lysate): competed for PTR1 | percentage of competition from bead binding ([6]; multitargeted bead mixture, free ligand 100 μM, T. brucei lysate, TB927.8.2210 PTERIDINE REDUCTASE): 89% | fold change - vehicle control [6]: 0.15

NCCOCCOCC(=O)Nc1nc2ncc(CNc3ccc(C(=O)NC(CCC(=O)O)C(=O)O)cc3)nc2c(=O)[nH]1 (centres unmarked) [compound 6]
fold change vs vehicle control [1, 7]: 1.1 | fold change vs vehicle control [2, 8]: 1.54 | fold changes relative to vehicle control ([3]; HeLa, captured protein ATP5F1): 0.96 | fold changes relative to vehicle control ([4]; HeLa, captured protein GPHN): 0.99 | fold change vs vehicle control [5]: 0.99 | fold change vs vehicle control [6]: 0.49

NCCCNc1ccc(C(=O)NC(CCC(=O)O)C(=O)O)cc1 (centres unmarked) [compound 7]
fold change vs vehicle control [1, 7]: 0.95 | fold change vs vehicle control [2, 8]: 1.05 | fold changes relative to vehicle control ([3]; HeLa, captured protein ATP5F1): 1.05 | fold changes relative to vehicle control ([4]; HeLa, captured protein GPHN): 1.03 | fold change vs vehicle control [5]: 1.02 | fold change vs vehicle control [6]: 1.03
